According to patent US6723753B2, “Substituted n-benzyl-n-phenyl aminoalcohol compounds useful for inhibiting cholesteryl ester transfer protein activity” (Pharmacia Corporation, priority 2002, dated 2004):

The compounds below were run against T1, CETP (Homo sapiens, UniProt P11597) (assay: Assay of CETP Inhibition using Purified Components (Reconstituted Buffer Assay)). Conditions: IC50, Inhibition of CETP activity in reconstituted buffer assay; transfer of [3H]CE from HDL to LDL.
T1 sequence (P11597 18-493): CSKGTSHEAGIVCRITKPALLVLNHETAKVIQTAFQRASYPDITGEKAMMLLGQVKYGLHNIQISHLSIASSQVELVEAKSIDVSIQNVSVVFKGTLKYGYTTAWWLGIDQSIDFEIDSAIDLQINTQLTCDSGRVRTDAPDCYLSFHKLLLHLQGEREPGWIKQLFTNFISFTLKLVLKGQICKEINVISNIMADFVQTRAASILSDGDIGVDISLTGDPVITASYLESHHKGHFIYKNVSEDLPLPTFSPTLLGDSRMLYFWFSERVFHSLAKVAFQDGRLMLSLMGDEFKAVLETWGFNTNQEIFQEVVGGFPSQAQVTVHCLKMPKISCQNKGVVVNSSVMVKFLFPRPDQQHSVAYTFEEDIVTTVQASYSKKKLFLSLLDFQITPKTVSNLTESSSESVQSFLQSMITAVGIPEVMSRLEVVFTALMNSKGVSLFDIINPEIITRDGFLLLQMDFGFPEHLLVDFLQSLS
Format: biochemical
Design: made in house; host or cells: CHO cells (serum-free conditioned medium)
How it was run: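 Purified human recombinant CETP from transfected CHO cells was incubated with [^3H]CE-labeled HDL donor and LDL acceptor in Tris pH 7.4/NaCl/EDTA/1% BSA buffer for 2 h at 37 °C. LDL was then precipitated with dextran sulfate/MgCl2, filtered, and counted by liquid scintillation to give IC50 for CE transfer.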

SMILES | IC50 [µM]
Cc1cccc(N(Cc2cccc(C(F)(F)F)c2)CC(O)C(F)(F)F)c1 (centres unmarked) [Example 25] | 10

Same assay, conditions: Inhibition of CETP activity in reconstituted buffer assay; transfer of [3H]CE from HDL to LDL; read-out: IC50

SMILES | IC50 [µM]
Oc1cccc(N(Cc2cccc(OC(F)(F)C(F)F)c2)CC(O)C(F)(F)F)c1 (centres unmarked) [Example 371, 3-[[[3-(1,1,2,2-tetrafluoroethoxy)phenyl]methyl](3,3,3-trifluoro-2-hydroxypropyl)amino]phenol] | 3.9
O=C(c1cccc(N(Cc2cccc(OC(F)(F)C(F)F)c2)CC(O)C(F)(F)F)c1)N1CCCCC1 (centres unmarked) [Example 456] | 9.2
Cc1cccc(CN(CC(O)C(F)(F)F)c2ccc(F)c(C(F)(F)F)c2)c1 (centres unmarked) [Example 58] | 15
OC(CN(Cc1cccc(OC(F)(F)F)c1)c1ccc(OC(F)(F)F)cc1)C(F)(F)F (centres unmarked) [Example 134] | 6
OC(CN(Cc1ccncc1)c1cccc(OC(F)(F)F)c1)C(F)(F)F (centres unmarked) [Example 349] | > 100
Cc1cccc(CN(CC(O)C(F)(F)F)c2ccccc2C)c1 (centres unmarked) [Example 27] | > 100
Cc1ccc(COc2cccc(N(Cc3cccc(OC(F)(F)C(F)F)c3)CC(O)C(F)(F)F)c2)cc1C (centres unmarked) [Example 419] | 0.19
CCCCOc1ccc(N(Cc2cccc(OC(F)(F)F)c2)CC(O)C(F)(F)F)cc1 (centres unmarked) [Example 135] | 20
Cc1ccc(N(Cc2ccccc2)CC(O)C(F)(F)F)cc1 (centres unmarked) [Example 14] | 60
OC(CN(Cc1cccc(OC(F)(F)C(F)F)c1)c1cccc(Oc2ccc(C(F)(F)F)cc2F)c1)C(F)(F)F (centres unmarked) [Example 224] | 0.16
COc1cccc(CN(CC(O)C(F)(F)F)c2cccc(OC)c2)c1 (centres unmarked) [Example 123] | 90
OC(CN(Cc1cccc(Oc2ccc(Cl)c(Cl)c2)c1)c1cccc(Oc2ccccc2)c1)C(F)(F)F (centres unmarked) [Example 94] | 40
OC(CN(CCCCOc1ccccc1)c1cccc(OC(F)(F)F)c1)C(F)(F)F (centres unmarked) [Example 336] | > 100
OC(CN(Cc1cccc(Oc2cc(Cl)cc(Cl)c2)c1)c1cccc(Oc2ccccc2)c1)C(F)(F)F (centres unmarked) [Example 114] | 40
OC(CN(Cc1ccc(-c2ccccc2)cc1)c1cccc(C(F)(F)F)c1)C(F)(F)F (centres unmarked) [Example 143] | 80
COc1ccc(Oc2cccc(CN(CC(O)C(F)(F)F)c3cccc(Oc4ccccc4)c3)c2)cc1 (centres unmarked) [Example 161] | > 100

SMILES | IC50 [µM]
OC(CN(Cc1nc2ccccc2[nH]1)c1cccc(OC(F)(F)F)c1)C(F)(F)F (centres unmarked) [Example 364] | > 100
CCCOc1ccc(CN(CC(O)C(F)(F)F)c2cccc(OC(F)(F)F)c2)cc1 (centres unmarked) [Example 125] | 25
COc1c(F)c(F)c(CN(CC(O)C(F)(F)F)c2cccc(OC(F)(F)F)c2)c(F)c1F (centres unmarked) [Example 326] | > 100
COC(=O)c1cccc(COc2cccc(N(Cc3cccc(OC(F)(F)C(F)F)c3)CC(O)C(F)(F)F)c2)c1 (centres unmarked) [Example 387] | 2.2
OC(CN(Cc1ccc(OC(F)(F)F)cc1)c1cccc(C(F)(F)F)c1)C(F)(F)F (centres unmarked) [Example 54] | 15
CCOc1cccc(CN(CC(O)COC(F)(F)C(F)F)c2cccc(Oc3ccccc3)c2)c1 (centres unmarked) [Example 213] | 11
OC(CN(Cc1cccc(OC(F)(F)C(F)F)c1)c1cccc(OCc2cccc(F)c2)c1)C(F)(F)F (centres unmarked) [Example 406] | 1.4
OC(CN(Cc1cccc(Oc2ccc(Cl)c(Cl)c2)c1)c1cccc(OC(F)(F)F)c1)C(F)(F)F (centres unmarked) [Example 95] | 60
CCCCOc1ccc(NC(=O)N(CC(O)C(F)(F)F)c2cccc(OC(F)(F)F)c2)cc1 (centres unmarked) [Example 367, N′-(4-butoxyphenyl)-N-(3,3,3-trifluoro-2-hydroxypropyl)-N-[3-(trifluoromethoxy)phenyl]urea] | > 100
CCC(C)(C)c1ccc(Oc2cccc(N(Cc3cccc(OC(F)(F)C(F)F)c3)CC(O)C(F)(F)F)c2)cc1 (centres unmarked) [Example 255] | 1.6
OC(CN(Cc1cccc(OC(F)(F)F)c1)c1ccccc1)C(F)(F)F (centres unmarked) [Example 73] | 3
OC(CN(Cc1ccc2c(c1)Cc1ccccc1-2)c1cccc(F)c1)C(F)(F)F (centres unmarked) [Example 199] | 10
Cc1ccc(CN(CC(O)C(F)(F)F)c2ccc(F)c(F)c2)cc1 (centres unmarked) [Example 24] | > 100
Oc1cccc(CN(CC(O)C(F)(F)F)c2cccc(OC(F)(F)F)c2)c1 (centres unmarked) [Example 357] | 40
COc1ccc(CN(CC(O)C(F)(F)F)c2cccc(OC(F)(F)F)c2)cc1OC (centres unmarked) [Example 116] | 40

The next lines start with the values.

IC50 [µM] | SMILES
0.42 | CC(C)c1ccc(COc2cccc(N(Cc3cccc(OC(F)(F)C(F)F)c3)CC(O)C(F)(F)F)c2)cc1 (centres unmarked) [Example 427]
2.5 | OC(CN(Cc1cccc(OC(F)(F)C(F)F)c1)c1cccc(OCc2cccc(Oc3ccccc3)c2)c1)C(F)(F)F (centres unmarked) [Example 426]
> 50 | OC(CN(Cc1cccc(OC(F)(F)C(F)F)c1)c1cccc(-c2nn[nH]n2)c1)C(F)(F)F (centres unmarked) [Example 577, 3-[[[3-(1,1,2,2-tetrafluoroethoxy)phenyl]methyl][3-(1H-tetrazol-5-yl)phenyl]amino]-1,1,1-trifluoro-2-propanol]
> 100 | COc1ccccc1N(Cc1ccc(C)cc1)CC(O)C(F)(F)F (centres unmarked) [Example 667]
7 | OC(CN(Cc1cccc(Br)c1)Cc1cccc(OC(F)(F)F)c1)C(F)(F)F (centres unmarked) [compound 194]
1.6 | COc1cccc(-c2cccc(N(Cc3cccc(OC(F)(F)C(F)F)c3)CC(O)C(F)(F)F)c2)c1 (centres unmarked) [Example 571]
2 | CC(C)CCc1cccc(CN(CC(O)C(F)(F)F)c2cccc(Oc3ccccc3)c2)c1 (centres unmarked) [Example 597]
4.8 | CSc1ccc(-c2cccc(N(Cc3cccc(OC(F)(F)C(F)F)c3)CC(O)C(F)(F)F)c2)cc1 (centres unmarked) [Example 553]
> 100 | OC(CN(Cc1ccc(F)cc1)Cc1ccccc1C(F)(F)F)C(F)(F)F (centres unmarked) [compound 189]
12 | OC(CN(Cc1cccc(Oc2ncccn2)c1)c1cccc(Oc2ccccc2)c1)C(F)(F)F (centres unmarked) [Example 605, 3-[(3-phenoxyphenyl) [[3-(2-pyrimidinyloxy)phenyl]methyl]amino]-1,1,1-trifluoro-2-propanol]
> 100 | OC(CN(Cc1cccc(C(F)(F)F)c1)Cc1ccccc1Cl)C(F)(F)F (centres unmarked) [compound 187]
1.4 | OC(CN(Cc1cccc(OC(F)(F)C(F)F)c1)c1cccc(-c2ccc(F)cc2)c1)C(F)(F)F (centres unmarked) [Example 568]
20 | FC(F)C(F)(F)Oc1cccc(C2OC(C(F)(F)F)CN2c2cccc(Oc3ccccc3)c2)c1 (centres unmarked) [Example 610, 3-(3-phenoxyphenyl)-2-[3-(1,1,2,2-tetrafluoroethoxy)phenyl]-5-(trifluoromethyl)oxazolidine]
> 100 | CCCCN(C)C(=O)c1cccc(CN(CC(O)C(F)(F)F)c2cccc(Oc3ccccc3)c2)c1 (centres unmarked) [compound 615]
> 100 | Cc1cccc(CN(Cc2cccc(F)c2)CC(O)C(F)(F)F)c1 (centres unmarked) [compound 180]
> 100 | OC(CN(Cc1cccc(F)c1)Cc1ccccc1C(F)(F)F)C(F)(F)F (centres unmarked) [compound 188]
13 | CC(C)NC(=O)c1cccc(N(Cc2cccc(OC(F)(F)C(F)F)c2)CC(O)C(F)(F)F)c1 (centres unmarked) [Example 457]
2.5 | COc1c(Cl)cc(-c2cccc(N(Cc3cccc(OC(F)(F)C(F)F)c3)CC(O)C(F)(F)F)c2)cc1Cl (centres unmarked) [Example 555]
1.7 | COCCOc1cccc(N(Cc2cccc(OC(F)(F)C(F)F)c2)CC(O)C(F)(F)F)c1 (centres unmarked) [Example 505]
3.1 | Cc1ccc(Oc2cccc(N(Cc3cccc(OC(F)(F)F)c3)CC(O)C(F)(F)F)c2)cn1 (centres unmarked) [Example 633, 3-[[3-(2-methyl-5-pyridyloxy)phenyl][[3-(trifluoromethoxy)phenyl]methyl]-amino]-1,1,1-trifluoro-2-propanol]
1.4 | CSc1ccc(Cc2cccc(N(Cc3cccc(OC(F)(F)C(F)F)c3)CC(O)C(F)(F)F)c2)cc1 (centres unmarked) [Example 526]
> 50 | Cc1cccc(S(=O)(=O)Nc2cccc(N(Cc3cccc(OC(F)(F)C(F)F)c3)CC(O)C(F)(F)F)c2)c1 (centres unmarked) [Example 530]
> 100 | Cc1cccc(CN(CC(O)C(F)(F)F)c2cccc(F)c2F)c1 (centres unmarked) [Example 678]
35 | CN(C(=O)c1cccc(N(Cc2cccc(OC(F)(F)C(F)F)c2)CC(O)C(F)(F)F)c1)c1ccccc1 (centres unmarked) [Example 468]
6.4 | N#Cc1cccc(N(Cc2cccc(OC(F)(F)C(F)F)c2)CC(O)C(F)(F)F)c1 (centres unmarked) [Example 576, 3-[[[3-(1,1,2,2-tetrafluoroethoxy)phenyl]methyl](3,3,3-trifluoro-2-hydroxypropyl)amino]benzonitrile]
> 50 | CC(C)C(=O)Nc1cccc(N(Cc2cccc(OC(F)(F)C(F)F)c2)CC(O)C(F)(F)F)c1 (centres unmarked) [Example 540]
2.3 | O=C(c1ccc(F)cc1)c1cccc(N(Cc2cccc(OC(F)(F)C(F)F)c2)CC(O)C(F)(F)F)c1 (centres unmarked) [Example 580]
4.2 | Cc1ccc(CN(CC(O)C(F)(F)F)c2cccc(Oc3ccccc3)c2)cc1-c1ccco1 (centres unmarked) [compound 594]
8.1 | OC(CN(Cc1cccc(OC(F)(F)C(F)F)c1)c1cccc(Sc2ccccc2)c1)C(F)(F)F (centres unmarked) [compound 290]
1.8 | O=C(c1ccccc1)c1cccc(N(Cc2cccc(OC(F)(F)C(F)F)c2)CC(O)C(F)(F)F)c1 (centres unmarked) [Example 579]
